Test results from patent US6632806B1, “Neurologically-active compounds” (The University of Sydney, priority 1997, dated 2003).
Several values for one entry are separate records, joined by “and”; a condition that tells them apart may be missing. Equal values may be shown once. Read-outs that look alike come from different tables or passages of the source.

What was measured:
[1] = target: human r1 receptors (GABAC receptors) (Homo sapiens, UniProt P24046); assay: Two-electrode voltage clamp recording of human r1 GABAC receptors expressed in Xenopus oocytes; conditions: for Effect as agonist or antagonist at GABAC receptors: screened at 100 μM; for Activation of the receptor by compound alone / Effect on GABA response when co-applied with GABA (1 μM): FIG. 1; for IC50: IC50 (concentration that inhibits 50% of the response produced by 1 μM GABA), 1 μM GABA; for Mode of antagonism: Schild analysis
Description: The plasmid was linearized with XbaI and cRNA made using the “Message Machine” kit from Ambion Inc. (Austin, Tex., USA). 50 ng of cRNA was injected into defolliculated Stage V Xenopus oocytes. Two to seven days later, receptor activity was measured by two-electrode voltage clamp recording, using a Geneclamp 500 amplifier (Axon Instruments Inc., Foster City, Calif., USA) and a MacLab 2e recorder (ADInstruments, Sydney, NSW, Australia). […] For receptor activation measurements, the indicated concentrations of agonist and antagonist were added to ND96.

GABAA [2] = test system: T1, GABAA; conditions: [3H]muscimol binding (Froestl et al, 1995a; 1995b); read-out: GABAA receptor affinity, IC50; cited from earlier work
T1 construct: Activity at GABAA; other: Woodward et al, 1993; GABAA Kb; other: Ragozzino et al (1996); other: PMPA; source not given, column fo

GABAB [3] = target: T2, GABAB (Rattus norvegicus, UniProt Q9Z0U4); set-up: from tissue; host or cells: rat cortical membranes / neocortical slices; values largely from the literature; conditions: [3H]CGP27492 binding (Froestl et al; Bittiger et al; Olpe et al); read-out: GABAB receptor affinity, IC50; cited from earlier work
Target sequence in this assay (Q9Z0U4 17-960 limits assumed): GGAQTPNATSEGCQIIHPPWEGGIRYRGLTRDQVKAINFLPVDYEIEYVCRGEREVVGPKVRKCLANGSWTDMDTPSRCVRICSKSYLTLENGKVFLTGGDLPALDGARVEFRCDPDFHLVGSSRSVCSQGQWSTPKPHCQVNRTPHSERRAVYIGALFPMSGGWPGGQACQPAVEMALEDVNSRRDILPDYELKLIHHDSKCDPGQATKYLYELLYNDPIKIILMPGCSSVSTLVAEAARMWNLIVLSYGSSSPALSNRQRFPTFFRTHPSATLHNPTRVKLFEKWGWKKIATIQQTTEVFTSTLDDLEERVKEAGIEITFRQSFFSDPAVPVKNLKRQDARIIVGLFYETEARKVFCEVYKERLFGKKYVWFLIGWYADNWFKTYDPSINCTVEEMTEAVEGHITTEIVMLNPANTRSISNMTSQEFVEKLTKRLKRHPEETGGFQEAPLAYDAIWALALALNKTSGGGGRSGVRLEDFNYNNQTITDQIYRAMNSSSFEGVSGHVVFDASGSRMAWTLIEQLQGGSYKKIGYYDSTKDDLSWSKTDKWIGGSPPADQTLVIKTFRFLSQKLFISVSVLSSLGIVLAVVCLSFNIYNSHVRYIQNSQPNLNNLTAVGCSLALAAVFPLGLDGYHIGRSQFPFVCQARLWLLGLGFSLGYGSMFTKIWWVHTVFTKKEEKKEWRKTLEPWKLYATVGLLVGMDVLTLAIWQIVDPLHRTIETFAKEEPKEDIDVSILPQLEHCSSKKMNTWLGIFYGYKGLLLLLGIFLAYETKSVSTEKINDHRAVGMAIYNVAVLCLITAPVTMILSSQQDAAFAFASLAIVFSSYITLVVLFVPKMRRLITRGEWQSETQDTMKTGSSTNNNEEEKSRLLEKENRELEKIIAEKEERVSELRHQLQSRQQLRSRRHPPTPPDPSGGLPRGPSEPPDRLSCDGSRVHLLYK
Target sequence in this assay (O88871 41-940 partner): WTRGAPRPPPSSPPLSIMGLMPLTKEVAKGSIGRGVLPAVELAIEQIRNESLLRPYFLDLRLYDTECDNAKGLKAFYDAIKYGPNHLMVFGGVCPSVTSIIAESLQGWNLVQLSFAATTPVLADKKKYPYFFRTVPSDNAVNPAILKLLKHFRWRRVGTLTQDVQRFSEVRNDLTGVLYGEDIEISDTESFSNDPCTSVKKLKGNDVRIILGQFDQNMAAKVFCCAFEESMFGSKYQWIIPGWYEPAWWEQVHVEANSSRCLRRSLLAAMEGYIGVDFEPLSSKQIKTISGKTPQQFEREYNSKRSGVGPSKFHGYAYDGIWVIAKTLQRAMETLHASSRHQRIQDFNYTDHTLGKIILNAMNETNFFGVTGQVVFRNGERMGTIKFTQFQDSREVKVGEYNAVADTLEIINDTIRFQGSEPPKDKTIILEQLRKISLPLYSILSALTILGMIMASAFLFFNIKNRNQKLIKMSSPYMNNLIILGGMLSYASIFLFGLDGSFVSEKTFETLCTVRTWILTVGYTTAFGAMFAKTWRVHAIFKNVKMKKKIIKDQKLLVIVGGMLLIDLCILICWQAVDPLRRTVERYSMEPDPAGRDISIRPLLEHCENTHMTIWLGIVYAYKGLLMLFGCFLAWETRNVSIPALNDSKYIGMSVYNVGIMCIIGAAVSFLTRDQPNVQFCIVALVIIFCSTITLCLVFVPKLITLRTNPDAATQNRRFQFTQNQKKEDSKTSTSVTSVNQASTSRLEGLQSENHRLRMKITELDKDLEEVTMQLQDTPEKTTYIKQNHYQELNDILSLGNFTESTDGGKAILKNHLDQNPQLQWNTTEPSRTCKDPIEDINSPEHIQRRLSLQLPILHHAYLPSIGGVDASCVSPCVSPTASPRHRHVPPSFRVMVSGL

GABAC (human r1) = target: T3, GABAC (human r1) (Homo sapiens, UniProt P24046); conditions: cited from earlier work
T3 construct: host or cells: Xenopus oocytes expressing human r1 mRNA

GABAA [4] = test system: T1, GABAA; conditions: Na-independent [3H]GABA binding (Johnston et al, 1978); read-out: GABAA receptor affinity, IC50; cited from earlier work
GABAA [5] = target: T1, GABAA; assay: Inhibition of [3H]muscimol binding using rat cortical membranes; conditions: PMPA; source not given, column footnote is [3H]muscimol binding; read-out: GABAA receptor affinity, IC50
human rho-2 receptors = human rho-2 receptors (Homo sapiens, UniProt P28476); assay: Antagonist KB at human homo-oligomeric rho-2 GABAC receptors; type: cell-based; conditions: for Kb: human rho-2
GABAB [6] = target: T2, GABAB; assay: Frequency of spontaneous discharges in neocortical slices, grease-gap recording; set-up: from tissue; host or cells: rat cortical membranes / neocortical slices; values largely from the literature; conditions: read-out: GABAB receptor affinity
Target sequence in this assay (Q9Z0U4 17-960 limits assumed): as the sequence (Q9Z0U4 17-960 limits assumed) above
Target sequence in this assay (O88871 41-940 partner): as the sequence (O88871 41-940 partner) above

GABAC receptors = conditions: Woodward et al, 1993; Johnston, 1996b; read-out: KD (agonist); cited from earlier work
male Swiss mice = assay: Elevated plus-maze memory test; type: in vivo
Description: In this assay mice are trained by placing them at the end of the open arm of the plus maze and allowing them to find the shelter of the closed arms. The time taken is measured as the ‘latency’. Immediately after the trial the mice are injected with the test drug or with a saline control. […]

chicks = assay: Memory consolidation in chicks, anthranilate-coated bead discrimination; type: in vivo, chick
Description: This procedure trains each chick on anthranilate-coated red beads, which have a bitter taste. In the test, 120 min. after the initial exposure to the red bead each chick is presented with a blue and a red bead, and normally will avoid pecking at the red bead; the discrimination ratio measures how well it remembers to do this. Chicks trained on 100% anthranilate-coated beads produce a discrimination ratio better than 0.9, and drug-induced memory deficits can be detected in this group. However, chicks trained on 20% anthranilate-coated beads produce a discrimination ratio of around 0.6, and this group can be used to detect drug-induced memory enhancement. Drugs are delivered by two bilateral intracranial injections (10 μL each).

GABAA [7] = test system: T1, GABAA; conditions: Ragozzino et al (1996); cited from earlier work
GABAB [8] = target: T2, GABAB; set-up: from tissue; host or cells: hippocampal slices (pyramidal neurons); conditions: bicuculline 20 μM; Ragozzino et al (1996); cited from earlier work
Target sequence in this assay (Q9Z0U4 20-960): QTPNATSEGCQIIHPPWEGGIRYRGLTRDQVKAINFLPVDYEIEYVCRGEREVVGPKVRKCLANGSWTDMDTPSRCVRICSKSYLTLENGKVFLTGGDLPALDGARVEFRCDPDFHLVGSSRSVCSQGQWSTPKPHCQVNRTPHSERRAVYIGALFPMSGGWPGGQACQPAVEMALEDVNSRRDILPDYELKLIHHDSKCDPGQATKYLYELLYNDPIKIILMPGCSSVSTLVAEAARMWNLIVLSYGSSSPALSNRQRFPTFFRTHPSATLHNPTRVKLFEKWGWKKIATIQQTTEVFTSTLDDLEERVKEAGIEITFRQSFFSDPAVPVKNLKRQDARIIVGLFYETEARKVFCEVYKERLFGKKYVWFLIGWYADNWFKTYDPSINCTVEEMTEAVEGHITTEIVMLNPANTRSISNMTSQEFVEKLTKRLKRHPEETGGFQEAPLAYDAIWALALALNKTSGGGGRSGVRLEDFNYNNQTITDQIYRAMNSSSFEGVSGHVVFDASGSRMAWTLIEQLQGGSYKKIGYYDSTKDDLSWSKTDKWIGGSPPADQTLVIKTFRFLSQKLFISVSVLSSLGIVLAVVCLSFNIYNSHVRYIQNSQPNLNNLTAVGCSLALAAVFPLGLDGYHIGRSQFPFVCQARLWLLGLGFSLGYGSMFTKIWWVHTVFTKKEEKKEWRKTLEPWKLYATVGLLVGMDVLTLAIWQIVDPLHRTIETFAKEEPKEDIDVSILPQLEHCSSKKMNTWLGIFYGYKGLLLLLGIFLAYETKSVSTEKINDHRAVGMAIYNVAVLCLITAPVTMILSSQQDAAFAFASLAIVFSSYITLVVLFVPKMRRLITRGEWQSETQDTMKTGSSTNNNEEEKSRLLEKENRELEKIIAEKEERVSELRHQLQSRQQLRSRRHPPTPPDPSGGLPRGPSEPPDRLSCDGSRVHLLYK
Target sequence in this assay (O88871 41-940 partner): as the sequence (O88871 41-940 partner) above

[9] = Murata et al, 1996, Ragozzino et al

human rho-2 receptors, sequence (P28476 21-465): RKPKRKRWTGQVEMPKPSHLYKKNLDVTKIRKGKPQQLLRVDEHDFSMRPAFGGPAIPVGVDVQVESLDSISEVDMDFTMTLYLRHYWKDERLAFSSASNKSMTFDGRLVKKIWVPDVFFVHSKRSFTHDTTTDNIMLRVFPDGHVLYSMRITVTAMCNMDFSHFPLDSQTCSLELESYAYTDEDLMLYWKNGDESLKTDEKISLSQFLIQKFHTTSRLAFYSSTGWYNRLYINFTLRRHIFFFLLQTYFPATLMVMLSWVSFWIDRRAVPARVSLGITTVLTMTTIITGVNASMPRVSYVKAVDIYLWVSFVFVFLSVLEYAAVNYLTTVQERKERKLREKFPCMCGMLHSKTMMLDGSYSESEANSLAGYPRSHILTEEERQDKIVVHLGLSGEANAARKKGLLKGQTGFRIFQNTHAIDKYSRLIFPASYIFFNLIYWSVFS
T3 sequence (P24046 22-479): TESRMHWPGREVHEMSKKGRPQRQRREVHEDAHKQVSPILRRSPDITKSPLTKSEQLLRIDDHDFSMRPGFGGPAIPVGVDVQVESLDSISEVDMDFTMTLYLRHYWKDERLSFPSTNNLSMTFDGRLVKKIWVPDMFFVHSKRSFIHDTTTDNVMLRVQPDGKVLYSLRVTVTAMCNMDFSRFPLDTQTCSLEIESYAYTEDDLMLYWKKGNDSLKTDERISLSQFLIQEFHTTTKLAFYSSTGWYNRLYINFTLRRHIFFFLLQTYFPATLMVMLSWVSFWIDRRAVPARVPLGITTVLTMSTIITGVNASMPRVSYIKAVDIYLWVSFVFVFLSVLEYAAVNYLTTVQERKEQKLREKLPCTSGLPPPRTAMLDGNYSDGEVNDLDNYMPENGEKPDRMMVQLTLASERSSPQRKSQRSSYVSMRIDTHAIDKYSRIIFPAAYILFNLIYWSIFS
human r1 receptors (GABAC receptors), sequence (P24046 22-479): as above

**Q.** Which “Effect as agonist or antagonist at GABAC receptors” value [1] does the source give for `NC[C@H](O)CP(=O)(O)CC1CCCCC1` [CGP51176, (2S)-3-amino-2-hydroxypropyl(cyclohexylmethyl)phosphinic acid] here?
**A.** no effect as either agonists or antagonists

**Q.** With `C[C@H](NC[C@@H](O)CP(=O)(O)Cc1ccccc1)c1ccc(Cl)c(Cl)c1` [CGP55845A] as the compound, how does the “Effect as agonist or antagonist at GABAC receptors” value [1] read?
**A.** no effect as either agonists or antagonists

**Q.** Which IC50 (GABAA [2]) does the source give for `NC/C=C\[PH](=O)O` [CGP70522, [(Z)-3-aminopropen-1-yl]phosphinic acid] here?
**A.** 6.6 µM

**Q.** What about the “Activation of Cl− channel current by compound on its own” value (“Activation of Cl− channel current” below) [1] of the same compound?
**A.** did not activate any current on their own

**Q.** And the “Activation of the receptor by compound alone” value ([1]; 300 μM)?
**A.** do not activate the receptor

**Q.** And the “Effect on GABA response when co-applied with GABA (1 μM)” value ([1]; 300 μM)?
**A.** the GABA response is blocked or reduced

**Q.** What about the IC50 [1] of the same compound?
**A.** > 300 µM

**Q.** What about the Mode of antagonism [1] of the same compound?
**A.** competitive antagonists

**Q.** With `CP(=O)(O)/C=C\CN` [CGP70523, [(Z)-3-aminopropen-1-yl]methylphosphinic acid] as the compound, how does the IC50 (GABAA [2]) read?
**A.** 242 µM

**Q.** What about the “Activation of Cl− channel current” value [1] of the same compound?
**A.** did not activate any current on their own

**Q.** And the “nH (Hill Coefficient)” value [1]?
**A.** 1.6 ± 0.1

**Q.** What about the “Activation of the receptor by compound alone” value ([1]; 100 μM) of the same compound?
**A.** do not activate the receptor

**Q.** And the “Effect on GABA response when co-applied with GABA (1 μM)” value ([1]; 100 μM)?
**A.** the GABA response is blocked or reduced

**Q.** And the IC50 [1]?
**A.** 38.9 µM and 38 µM

**Q.** What about the Mode of antagonism [1] of the same compound?
**A.** competitive antagonists

**Q.** And the IC50 (GABAB [3])?
**A.** 16 µM

**Q.** For `NCCCC(=O)O` [GABA, γ-Aminobutyric acid], which “Activation of Cl− channel current” value [1] is on record?
**A.** activated the Cl^− channel

**Q.** What about the “nH (Hill Coefficient)” value [1] of the same compound?
**A.** 2.6 ± 0.2

**Q.** What does the source list for `O=C(O)C1=CCNCC1` [Isoguvacine]?
**A.** EC50 (GABAC (human r1); data from Murata et al, 1996): 99 µM; IC50 (GABAA [4]): 1400 nM

**Q.** Which Kb [1] does the source give for `CP(=O)(O)C1CCNCC1` [PMPA, piperidine-4-(methyl)phosphinic acid] here?
**A.** 6 ± 1.2 µM

**Q.** What about the IC50 [1] of the same compound?
**A.** 6 µM

**Q.** What about the IC50 (GABAA [5]) of the same compound?
**A.** > 100 µM

**Q.** What about the Kb (human rho-2 receptors) of the same compound?
**A.** 4.2 ± 0.2 µM

**Q.** What about the IC50 (GABAB [6]) of the same compound?
**A.** > 1 mM

**Q.** Which results are given for `NC/C=C/C(=O)O` [TACA, trans-4-aminocrotonic acid]?
**A.** Activation of Cl− channel current by compound on its own [1]: activated the Cl^− channel; nH (Hill Coefficient) [1]: 2.4 ± 0.2; Maximal dose current as % of the maximal GABA activated current ([1]; maximal dose): 95%; EC50 ([1]; read-out: EC50 (effective dose that activates 50% of the maximal current), r1 receptors in Xenopus oocytes, clamped at −60 mV): 440 ± 20 nM; Kd (GABAC receptors): 600 nM; IC50 (GABAA [4]): 140 nM

**Q.** What does the source list for `CP(=O)(O)C1=CCNCC1` [TPMPA]?
**A.** Effect on latency (male Swiss mice; 50 mg/Kg, repeat experiment, tested only after 14 days, Swiss mice from a different source): significantly reduced latency; Effect on latency (male Swiss mice; 200 mg/Kg, first experiment, 14 day test): significantly reduces the latency; Effect on memory (discrimination ratio) (chicks; 30 μM, intracranial injection, chicks trained with 20% anthranilate): enhances memory; Time of injection after training giving optimum effect (chicks; in vivo): ≤ 2.5 min; Kd (GABAC (human r1); Murata et al, 1996, Ragozzino et al, 1996, read-out: KD, GABAC receptor antagonist activity): 2100 nM; Selectivity as antagonist for GABAC receptors over GABAB receptors (GABAC (human r1); [9]): more than 100 fold; Selectivity at GABAC receptors over GABAA receptors (GABAC (human r1); [9]): 500 fold; Kb (GABAC (human r1); data from Murata et al, 1996): 2100 nM; IC50 (GABAC (human r1); read-out: Concentration producing 50% inhibition of GABAC receptor activation): 2100 nM; Kb (GABAA [7]): 320 µM; Kb [1]: 2 ± 0.4 µM; EC50 (GABAB [8]): ~500 µM; Potency at blocking rho-2 receptors relative to rho-1 GABAC receptors (human rho-2 receptors; human homo-oligomeric receptors): an order of magnitude less potent; Kb (human rho-2 receptors): 15.6 ± 1.6 µM
